Measured values taken from patent publication US12351855B2, “Bioelectronic circuits, systems and methods for preparing and using them” (priority 2019, dated 2025).
Non-standard residues stand in square brackets, D forms with d.

Columns and labels:
IgG Anti-HIV = assay type: binding
IgG Anti-Ebola = assay type: binding
IgE Anti-DNP = assay type: binding, mouse
αVβ3 Integrin = αVβ3 Integrin (Homo sapiens, UniProt P05106+P06756); details: Table 1 adapted from Zhang et al.; not among the SPR-measured affinities; cited from earlier work
DNA template = test: Rolling-circle amplification of a DNA template, DNA gel of polymerization product; assay type: biochemical; details: polymerase bound by two streptavidin molecules; versus native enzyme with exonuclease activity deleted
Protocol: To confirm that the modified polymerase was still active, rolling-circle amplification of a DNA template was carried out with the molecule 35 as bound by two streptavidin molecules.

Chain of αVβ3 Integrin (P06756 31-889 limits assumed): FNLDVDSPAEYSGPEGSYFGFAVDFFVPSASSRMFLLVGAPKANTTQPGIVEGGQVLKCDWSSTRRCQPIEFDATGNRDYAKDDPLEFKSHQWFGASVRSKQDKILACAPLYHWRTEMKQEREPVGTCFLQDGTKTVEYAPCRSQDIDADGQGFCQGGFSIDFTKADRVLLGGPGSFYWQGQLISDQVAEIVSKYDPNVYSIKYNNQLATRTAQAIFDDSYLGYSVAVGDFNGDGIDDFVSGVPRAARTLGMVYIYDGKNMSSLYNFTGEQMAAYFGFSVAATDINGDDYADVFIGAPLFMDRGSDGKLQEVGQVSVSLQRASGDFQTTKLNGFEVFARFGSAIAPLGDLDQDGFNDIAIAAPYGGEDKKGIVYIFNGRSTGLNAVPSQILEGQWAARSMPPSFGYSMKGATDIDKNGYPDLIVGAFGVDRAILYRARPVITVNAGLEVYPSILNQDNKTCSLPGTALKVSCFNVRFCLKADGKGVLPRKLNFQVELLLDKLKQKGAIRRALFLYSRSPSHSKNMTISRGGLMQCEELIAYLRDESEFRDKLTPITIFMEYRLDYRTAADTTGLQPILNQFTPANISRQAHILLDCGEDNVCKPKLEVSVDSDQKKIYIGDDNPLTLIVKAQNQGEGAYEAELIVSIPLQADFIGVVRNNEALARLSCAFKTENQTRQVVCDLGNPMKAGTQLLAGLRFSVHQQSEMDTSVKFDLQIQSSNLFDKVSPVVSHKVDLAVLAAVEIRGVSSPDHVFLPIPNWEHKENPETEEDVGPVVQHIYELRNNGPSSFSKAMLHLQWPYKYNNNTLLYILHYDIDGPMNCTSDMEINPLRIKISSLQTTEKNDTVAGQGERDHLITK
Chain of αVβ3 Integrin (P06756 891-1048 partner limits assumed): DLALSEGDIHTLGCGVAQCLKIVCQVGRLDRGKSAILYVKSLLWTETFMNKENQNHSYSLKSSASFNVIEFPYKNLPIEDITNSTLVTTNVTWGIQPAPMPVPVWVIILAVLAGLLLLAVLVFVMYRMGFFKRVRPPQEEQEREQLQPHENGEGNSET
Chain of αVβ3 Integrin (P05106 27-788): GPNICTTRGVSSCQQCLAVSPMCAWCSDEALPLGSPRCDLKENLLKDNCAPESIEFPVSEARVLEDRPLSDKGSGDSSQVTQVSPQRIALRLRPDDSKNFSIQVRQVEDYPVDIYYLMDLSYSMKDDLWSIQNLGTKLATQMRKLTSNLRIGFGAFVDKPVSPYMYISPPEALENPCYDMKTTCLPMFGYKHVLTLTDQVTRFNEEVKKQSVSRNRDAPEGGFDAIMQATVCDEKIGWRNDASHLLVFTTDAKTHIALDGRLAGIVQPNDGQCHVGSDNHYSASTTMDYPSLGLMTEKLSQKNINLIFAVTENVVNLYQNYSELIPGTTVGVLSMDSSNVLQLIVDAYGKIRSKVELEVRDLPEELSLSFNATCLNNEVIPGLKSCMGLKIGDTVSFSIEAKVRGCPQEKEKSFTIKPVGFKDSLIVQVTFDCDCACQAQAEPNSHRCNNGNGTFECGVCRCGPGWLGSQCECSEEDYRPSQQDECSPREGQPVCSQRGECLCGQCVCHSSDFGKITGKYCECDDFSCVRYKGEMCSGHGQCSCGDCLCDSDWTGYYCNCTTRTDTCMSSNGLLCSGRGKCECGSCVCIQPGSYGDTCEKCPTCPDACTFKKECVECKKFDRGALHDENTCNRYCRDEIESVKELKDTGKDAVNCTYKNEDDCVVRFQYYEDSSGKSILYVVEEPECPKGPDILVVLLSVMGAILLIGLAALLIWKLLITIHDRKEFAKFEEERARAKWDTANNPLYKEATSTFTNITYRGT

With CALDRWEKIRLR the Kd (IgG Anti-HIV) was 240 nM.

For CHNTPVYKLDISEATQV, the Kd (IgG Anti-Ebola) was 1400 nM.

Molecule HSCH2CH2-dinitrophenol has a Kd (IgE Anti-DNP) of 65 nM.

In the case of cyclo(RGD[dF]C) [Cyclic RGDfC], the Kd (αVβ3 Integrin) is listed as about 10 nM.

B1: bis-biotinylated polymerase: exonuclease-deleted ϕ29 polymerase with biotinylated Avitags inserted between G111/K112 and E279/D280 (protein)
chain: MKHMPRKMYSCAFATTTKVEDCRVWAYGYMNIEDHSEYKIGNSLDEFMAWVLKVQADLYFHNLKFDGAFIINWLERNGFKWSADGLPNTYNTIISRMGQWYMIDICLGYKGGLNDIFEAQKIEWHEKRKIHTVIYDSLKKLPFPVKKIAKDFKLTVLKGDIDYHKERPVGYKITPEEYAYIKNDIQIIAEALLIQFKQGLDRMTAGSDSLKGFKDIITTKKFKKVFPTLSLGLDKEVRYAYRGGFTWLNDRFKEKEIGEGMVFDVNSLYPAQMYSRLLPYGEPIVFEGKYVWDEGLNDIFEAQKIEWHEDYPLHIQHIRCEFELKEGYIPTIQIKRSRFYKGNEYLKSSGGEIADLWLSNVDLELMKEHYDLYNVEYISGLKFKATTGLFKDFIDKWTYIKTTSEGAIKQLAKLMLNSLYGKFASNPDVTGKVPYLKENGALGFRLGEEETKDPVYTPMGVFITAWARYTTITAAQACYDRIIYCDTDSIHLTGTEIPDVIKDIVDPKKLGYWAHESTFKRAKYLRQKTYIQDIYMKEVDGKLVEGSPDDYTDIKFSVKCAGMTDKIKKEVTFENFKVGFSRKMKPKPVQVPGGVVLVDDTFTIK
In the case of B1, the polymerase activity (DNA template) is reported as “comparable to that of the native enzyme”.
